# Measurements taken from ChEMBL document CHEMBL1145661, “Studies on Aristolochia, I. Conversion of Aristolochic Acid-I to Aristolic Acid-One-Step Removal of a Nitro Group” (1983).
# Legend:
# Oryctolagus cuniculus [1] = assay: Regulation of fertility in rabbit assessed as fetal loss 90 mg/kg; type: functional
# Oryctolagus cuniculus [2] = assay: Regulation of fertility in rabbit assessed as fetal loss 60 mg/kg; type: functional
smiles,measurement,setting,value
COc1cccc2c1ccc1c(C(=O)O)cc3c(c12)OCO3 [ARISTOLIC ACID],Activity,Oryctolagus cuniculus [1],80%
same,Activity,Oryctolagus cuniculus [2],80%
